Measurements taken from patent US6649797B2, “Compounds and methods of use to treat infectious diseases” (The Picower Institute for Medical Research, priority 1996, dated 2003).

System: HIV-1 pre-integration complexes / karyopherin α
Test: Binding of HIV-1 pre-integration complexes to GST-karyopherin α
Format: biochemical
Details: for reduction of karyopherin α/HIV-1 binding: lysates of HIV-1RF infected H9 cells treated 2 hours, Phosphorimager
Protocol: Cytoplasmic lysates of H9 cells infected with HIV-1RF (upper panel) or HIV-like pseudovirions (bottom panel) were treated for 2 hours with various concentrations of CNI-H0294, and were then mixed with GST-karyopherin α immobilized on glutathione Sepharose beads. HIV-1 DNA or RNA that co-precipitated with karyopherin α was quantified as in A and B.
Cytoplasmic lysates prepared from H9 cells infected with HIV-1RF were treated with 10 μM CNI-H3094 (lane 1) or with 1 μM CNI-H0294 and 10 μM (lane 5), 5 μM (lane 4), 1 μM (lane 3), or no CNI-H3094 (lane 2). The amount of pre-integration complexes available for interaction with karyopherin α was quantified as in FIG. 10.
H9 cells were infected with equal amounts of wild-type HIV-1NLHX or with mutant HIV-1NLHX that lack Vpr (Vpr^−) or carry a mutation that inactivates the MA NLS (MA NLS^−). Infected cells were washed and incubated for 4 h. An aliquot of each sample was used to quantify the total HIV-1 DNA (FIG. 14A) and the rest was used to prepare cytoplasmic extracts. Extracts were incubated with 1 μM CNI-H0294 (FIG. 14B, lanes 2, 4, 6, 8) or were left untreated (lanes 1, 3, 5, 7). The amount of pre-integration complexes available for binding to karyopherin α was determined as in FIG. 10.
H9 cells were infected with HIV-1 or HIV-like pseudovirions (Haffar, et al., 1990, J. Virol., 64:2653-2659) at a multiplicity adjusted according to p24 content (50 ng p24 per 10^6 cells) The MA NLS^− virus contains substitutions of isoleucine residues for lysines in positions 26 and 27 of MA in an NLHX backbone (Westervelt., et al., 1992, J. Virol. 66:2577-2582), thus inactivating the NLS. The Vpr^− virus has the initiating ATG of the vpr gene changed to GTG, thus abolishing expression of this gene. The ΔMA NLS pseudovirions have leucine substituting for lysine in position 28 of MA. This mutation abrogates nuclear translocation of HIV-1 gag RNA in growth-arrested H9 cells infected with pseudovirions. After a 1 hour absorption, excess viruses or pseudovirions were washed away, and cells were incubated for an additional 2-3 hour period at 37° C. prior to analysis.
Cytoplasmic extracts were prepared by lysing cells in cold extraction buffer (10 mM KCl, 10 mM Tris-HCl [pH 7.6], 0.5 mM MgCl2, 1 μg/ml each of leupeptin and aprotinin, and 1 MM phenylmethylsulfonyl fluoride [PMSF]) by 20-30 strokes of a Dounce homogenizer under the control of phase-contrast microscopy. After removal of nuclei, cytoplasmic extract was cleared by centrifugation at 15,000 g for 10 min.
Cytoplasmic extracts prepared from HIV-1-or pseudovirion-infected H9 cells were adjusted to 0.14 M NaCl, 0.1% Tween 20 and precleared with glutathione-Sepharose beads for 30 min. at room temperature. Karyopherin α was expressed as a fusion protein with glutathione S-transferase (GST) which can bind glutathione beads in solution. GST-karyopherin α immobilized on Sepharose beads was then added (about 50 μg of immobilized karyopherin α per extract from 108 infected cells) and the mixture was incubated at room temperature for another 30 min. Beads were then pelleted by centrifugation and washed 3 times with PBS supplemented with 0.1% Tween 20, 1 μg/ml each of leupeptin and aprotinin, and 1 mM PMSF. HIV-1 DNA was isolated from the beads by SDS-proteinase K treatment with subsequent phenol-chloroform extraction, while pseudovirion gag RNA was isolated by RNazol (Biotecx Laboratories Inc.).

CC(=O)c1cc(Nc2cc(C)[n+](C)c(N)n2)cc(C(C)=O)c1 [CNI-0294, 2-Amino-4-(3,5-diacetylphenyl)amino-1,6-dimethylpyrimidinium chloride]
reduction of karyopherin α/HIV-1 binding (0.1 μM): 8 fold | effect on binding of karyopherin α to complexes (1 μM, MA NLS^− complexes): had no effect | diminished binding of karyopherin α to complexes (1 μM, Vpr^− complexes): 95% | reduction of karyopherin α/HIV-1 binding (1 μM): 25 fold | diminished binding of karyopherin α to complexes (1 μM, wild-type (wt) HIV-1NLHX complexes): 95% | interaction of pre-integration complexes with karyopherin α (10 μM (FIG. 13A)): blocked the interaction
